Test results as given in ChEMBL document CHEMBL5375986, “Discovery of Lead 2-Thiazolylhydrazones with Broad-Spectrum and Potent Antifungal Activity” (J Med Chem, 2023).
Converted amounts (≈) assume the structure as drawn.

How the values were obtained:
[Candida] auris = Antifungal activity against Candida auris COLO 01 assessed as inhibition of fungal growth incubated for 24 to 48 hrs by CLSI protocol based broth microdilution method; assay type: functional; conditions: Candidozyma auris, time 24-48 hrs
Nakaseomyces glabratus = test: Antifungal activity against Candida glabrata ATCC 2001 assessed as inhibition of fungal growth incubated for 24 to 48 hrs by CLSI protocol based broth microdilution method; assay type: functional; conditions: time 24-48 hrs
Candida tropicalis = test: Antifungal activity against Candida tropicalis ATCC 750 assessed as inhibition of fungal growth incubated for 24 to 48 hrs by CLSI protocol based broth microdilution method; assay type: functional; conditions: time 24-48 hrs
Cryptococcus neoformans [1] = test: Antifungal activity against Cryptococcus neoformans ATCC 24067 assessed as inhibition of fungal growth incubated for 24 to 48 hrs by CLSI based broth microdilution method; assay type: functional; conditions: time 24-48 hrs
Pichia kudriavzevii = test: Antifungal activity against Candida krusei ATCC 20298 assessed as inhibition of fungal growth incubated for 24 to 48 hrs by CLSI protocol based broth microdilution method; assay type: functional; conditions: time 24-48 hrs
Candida parapsilosis = test: Antifungal activity against Candida parapsilosis ATCC 22019 assessed as inhibition of fungal growth incubated for 24 to 48 hrs by CLSI protocol based broth microdilution method; assay type: functional; conditions: Lodderomyces parapsilosis, time 24-48 hrs
[2] = Antifungal activity against Cryptococcus gattii ATCC 24065 assessed as inhibition of fungal growth incubated for 24 to 48 hrs by CLSI protocol based broth microdilution method; assay type: functional, Cryptococcus gattii VGI; conditions: time 24-48 hrs
Candida albicans [3] = test: Antifungal activity against Candida albicans SC5314 assessed as inhibition of fungal growth incubated for 24 to 48 hrs by CLSI protocol based broth microdilution method; assay type: functional; conditions: time 24-48 hrs
Cryptococcus neoformans [4] = test: Antifungal activity against Cryptococcus neoformans assessed as inhibition of fungal growth; assay type: functional
[5] = Antifungal activity against Cryptococcus gattii VGI assessed as inhibition of fungal growth; assay type: functional
Candida albicans [6] = test: Antifungal activity against Candida albicans assessed as inhibition of fungal growth; assay type: functional
[7] = Cytotoxicity against human PBMC cells assessed as inhibition of cell growth incubated for 24 to 48 hrs by MTT assay; assay type: toxicity, cell-based

Row | Compound | MIC ([Candida] auris) | MIC (Nakaseomyces glabratus) | MIC (Candida tropicalis) | MIC (Cryptococcus neoformans [1]) | MIC (Pichia kudriavzevii) | MIC (Candida parapsilosis) | MIC [2] | MIC (Candida albicans [3]) | MIC (Cryptococcus neoformans [4]) | MIC [5] | MIC (Candida albicans [6]) | IC50 [7]
1 | C/C(CCC(=O)O)=N\Nc1nc(-c2ccc(C#N)cc2)cs1 | 0.8 µM (≈ 0.251 µg/mL) | 49.7 µM (≈ 15.6 µg/mL) | 24.8 µM (≈ 7.8 µg/mL) | 1.5 µM (≈ 0.472 µg/mL) | 1.5 µM (≈ 0.472 µg/mL) | 6.2 µM (≈ 1.95 µg/mL) | 1.5 µM (≈ 0.472 µg/mL) | 3.1 µM (≈ 0.975 µg/mL) |  |  |  | 
2 | CCOC(=O)C(C)=NNc1nc(-c2ccc(F)cc2)cs1 | 50.8 µM (≈ 15.6 µg/mL) | > 125 µM | > 125 µM | > 125 µM | 102 µM (≈ 31.3 µg/mL) | > 125 µM | > 125 µM | > 125 µM |  |  |  | 
3 | C/C(CCC(=O)O)=N\Nc1nc(-c2ccc(F)cc2)cs1 | 0.8 µM (≈ 0.246 µg/mL) | 50.8 µM (≈ 15.6 µg/mL) | 6.3 µM (≈ 1.94 µg/mL) | 3.2 µM (≈ 0.984 µg/mL) | 1.6 µM (≈ 0.492 µg/mL) | 1.6 µM (≈ 0.492 µg/mL) | 3.2 µM (≈ 0.984 µg/mL) | 3.2 µM (≈ 0.984 µg/mL) |  |  |  | 
4 | CCOC(=O)c1sc(N/N=C\C2CCCCC2)nc1C | > 125 µM | > 125 µM | > 125 µM | > 125 µM | > 125 µM | > 125 µM | > 125 µM | > 125 µM |  |  |  | 
5 | C/C(CCC(=O)O)=N\Nc1nc(-c2ccccc2)cs1 | 3.4 µM (≈ 0.984 µg/mL) | 1.7 µM (≈ 0.492 µg/mL) | 3.4 µM (≈ 0.984 µg/mL) | 6.7 µM (≈ 1.94 µg/mL) | 13.5 µM (≈ 3.91 µg/mL) | 13.5 µM (≈ 3.91 µg/mL) | 6.7 µM (≈ 1.94 µg/mL) | 3.4 µM (≈ 0.984 µg/mL) |  |  |  | 
6 | CCN1CCCC(/C=N/Nc2nc(-c3ccc(Br)cc3)cs2)C1 (stereo not drawn) | 19.9 µM (≈ 7.83 µg/mL) | > 125 µM | 79.7 µM (≈ 31.4 µg/mL) | 72.9 µM (≈ 28.7 µg/mL) | 2.5 µM (≈ 0.983 µg/mL) | 19.9 µM (≈ 7.83 µg/mL) | 72.9 µM (≈ 28.7 µg/mL) | 39.8 µM (≈ 15.7 µg/mL) |  |  |  | 
7 | CCOC(=O)Cc1csc(NN=C(C)CCO)n1 | 115 µM (≈ 31.3 µg/mL) | 7.2 µM (≈ 1.95 µg/mL) | 57.6 µM (≈ 15.6 µg/mL) | > 125 µM | 3.6 µM (≈ 0.977 µg/mL) | 115 µM (≈ 31.3 µg/mL) | > 125 µM | 115 µM (≈ 31.3 µg/mL) |  |  |  | 
8 | COc1ccc(-c2csc(NN=C(C)CCO)n2)cc1 |  |  |  |  |  |  |  |  | 0.45 µM (≈ 0.131 µg/mL) | 0.9 µM (≈ 0.262 µg/mL) |  | 
9 | CCOC(=O)/C(C)=N\Nc1nc(C)c(C(=O)OCC)s1 | > 125 µM | > 125 µM | 104 µM (≈ 31.3 µg/mL) | > 125 µM | > 125 µM | > 125 µM | > 125 µM | > 125 µM |  |  |  | 
10 | CCOC(=O)/C(C)=N/Nc1nc(-c2ccc(C#N)cc2)cs1 | 24.8 µM (≈ 7.8 µg/mL) |  | > 125 µM | 49.7 µM (≈ 15.6 µg/mL) | 99.4 µM (≈ 31.2 µg/mL) | 24.8 µM (≈ 7.8 µg/mL) | 24.8 µM (≈ 7.8 µg/mL) | 49.7 µM (≈ 15.6 µg/mL) |  |  |  | 
11 | CCOC(=O)Cc1csc(N/N=C\C2CCCCC2)n1 | 52.9 µM (≈ 15.6 µg/mL) | > 125 µM | 6.6 µM (≈ 1.95 µg/mL) | 106 µM (≈ 31.3 µg/mL) | 0.8 µM (≈ 0.236 µg/mL) | 52.9 µM (≈ 15.6 µg/mL) | 106 µM (≈ 31.3 µg/mL) | 52.9 µM (≈ 15.6 µg/mL) |  |  |  | 
12 | C/C(CCC(=O)O)=N\Nc1nc(-c2ccc(C)cc2)cs1 | 3.2 µM (≈ 0.971 µg/mL) |  | 51.4 µM (≈ 15.6 µg/mL) | 0.7 µM (≈ 0.212 µg/mL) | 6.4 µM (≈ 1.94 µg/mL) |  | 0.3 µM (≈ 0.091 µg/mL) | 6.4 µM (≈ 1.94 µg/mL) |  |  |  | 
13 | CCOC(=O)/C(C)=N/Nc1nc(-c2ccc(Br)cc2)cs1 | 21.2 µM (≈ 7.81 µg/mL) | 21.2 µM (≈ 7.81 µg/mL) | 21.2 µM (≈ 7.81 µg/mL) | 84.9 µM (≈ 31.3 µg/mL) | 10.6 µM (≈ 3.9 µg/mL) | 84.9 µM (≈ 31.3 µg/mL) | 84.9 µM (≈ 31.3 µg/mL) | 84.9 µM (≈ 31.3 µg/mL) |  |  |  | 
14 | CC(CCO)=NNc1nc(-c2ccc(C#N)cc2)cs1 |  |  |  |  |  |  |  |  | 0.12 µM (≈ 0.0344 µg/mL) | 0.12 µM (≈ 0.0344 µg/mL) | 1.95 µM (≈ 0.558 µg/mL) | 
15 | C[C@@H]1[C@H](O)[C@@H](C)/C=C/C=C/C=C/C=C/C=C/C=C/C=C/[C@H](O[C@@H]2O[C@H](C)[C@@H](O)[C@H](N)[C@@H]2O)C[C@@H]2O[C@](O)(C[C@@H](O)C[C@@H](O)[C@H](O)CC[C@@H](O)C[C@@H](O)CC(=O)O[C@H]1C)C[C@H](O)[C@H]2C(=O)O [AMPHOTERICIN B] | 4.3 µM (≈ 3.97 µg/mL) | 1.1 µM (≈ 1.02 µg/mL) | 0.5 µM (≈ 0.462 µg/mL) | 0.5 µM (≈ 0.462 µg/mL) | 4.3 µM (≈ 3.97 µg/mL) | 2.2 µM (≈ 2.03 µg/mL) | 1.1 µM (≈ 1.02 µg/mL) | 2.2 µM (≈ 2.03 µg/mL) |  |  |  | 
16 | CC[C@H](C)C[C@H](C)CCCCCCCCC(=O)N[C@H]1C[C@@H](O)[C@@H](NCCN)NC(=O)[C@@H]2[C@@H](O)CCN2C(=O)[C@H]([C@H](O)CCN)NC(=O)[C@H]([C@H](O)[C@@H](O)c2ccc(O)cc2)NC(=O)[C@@H]2C[C@@H](O)CN2C(=O)[C@H]([C@@H](C)O)NC1=O [CASPOFUNGIN] | 0.1 µM (≈ 0.109 µg/mL) |  |  |  |  |  |  |  |  |  |  | 
17 | Nc1ccn([C@@H]2O[C@H](CO)[C@@H](O)[C@@H]2O)c(=O)n1 [CYTARABINE] |  |  |  |  |  |  |  |  |  |  |  | 181 µM
18 | OC(Cn1cncn1)(Cn1cncn1)c1ccc(F)cc1F [FLUCONAZOLE] |  | 13.1 µM (≈ 4.01 µg/mL) | 0.8 µM (≈ 0.245 µg/mL) |  | 104 µM (≈ 32 µg/mL) | 3.3 µM (≈ 1.01 µg/mL) | 52.2 µM (≈ 16 µg/mL) | 1.6 µM (≈ 0.49 µg/mL) |  |  |  | 
19 | Cc1ccc(NC(=O)c2ccc(CN3CCN(C)CC3)cc2)cc1Nc1nccc(-c2cccnc2)n1 [IMATINIB] |  |  |  |  |  |  |  |  |  |  |  | 159 µM
20 | CCC(C)n1ncn(-c2ccc(N3CCN(c4ccc(OCC5COC(Cn6cncn6)(c6ccc(Cl)cc6Cl)O5)cc4)CC3)cc2)c1=O (stereo not drawn) [ITRACONAZOLE] | 0.4 µM (≈ 0.282 µg/mL) | 0.4 µM (≈ 0.282 µg/mL) | 0.2 µM (≈ 0.141 µg/mL) | 1.4 µM (≈ 0.988 µg/mL) | 2.8 µM (≈ 1.98 µg/mL) | 0.4 µM (≈ 0.282 µg/mL) | 2.8 µM (≈ 1.98 µg/mL) | 0.7 µM (≈ 0.494 µg/mL) |  |  |  | 
